# Activity calls are given as the source filed them.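 How the source made its calls: active means response changes with concentration, giving a dose-dependent curve as judged by the depositor; inactive means the rest, with no dose-dependent response.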
# Target: Muscarinic acetylcholine receptor M1 (Homo sapiens) (UniProt P11229)
# Assay: human M1 receptor positive allosteric modulation, SAR follow-up, selectivity assay for M4 PAM optimization, CHO-K1 cells, calcium fluorescence (AID 623924)
# Settings: CHO-K1 hM1, calcium fluorescence, ACh EC20 potentiation; for % ACh max response: at 30 µM (top of the series)
# Sequence of Muscarinic acetylcholine receptor M1 (Homo sapiens) (P11229 whole entry, looked up): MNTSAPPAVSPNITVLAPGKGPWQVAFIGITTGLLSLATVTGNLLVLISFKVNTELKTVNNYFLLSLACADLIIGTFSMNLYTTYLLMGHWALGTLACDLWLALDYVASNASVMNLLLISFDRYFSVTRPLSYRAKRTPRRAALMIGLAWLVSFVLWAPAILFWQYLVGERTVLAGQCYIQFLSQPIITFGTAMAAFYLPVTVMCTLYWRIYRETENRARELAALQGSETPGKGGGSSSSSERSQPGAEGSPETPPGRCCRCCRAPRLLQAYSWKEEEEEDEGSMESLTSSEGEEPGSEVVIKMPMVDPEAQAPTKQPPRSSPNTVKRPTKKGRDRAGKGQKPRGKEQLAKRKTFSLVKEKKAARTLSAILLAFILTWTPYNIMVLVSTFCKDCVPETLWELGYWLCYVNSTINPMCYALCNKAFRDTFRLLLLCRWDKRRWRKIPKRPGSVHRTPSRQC
Structure (SMILES),outcome,% ACh max response,other results
Cc1nc2sc(C(=O)NCc3ccncc3)c(N)c2c(C)c1Cl,inactive,,
COc1ccc(C)c2sc(NC(=O)c3ccncc3)nc12,,inactive,
Cc1nc2sc(C(=O)NCc3cccc(F)c3F)c(N)c2c(C)c1Cl,,inactive,
Cc1nc2sc(C(=O)NC3CC3)c(N)c2c(C)c1Cl,,,EC50: 0.969 µM
Cc1nc2sc(C(=O)NCc3ccncn3)c(N)c2c(C)c1Cl,,inactive,
Cc1nc2sc(C(=O)NCCc3ccncc3)c(N)c2c(C)c1Cl,,inactive,
Cc1nc2sc(C(=O)NCc3ccc4c(c3)OCO4)c(N)c2c(C)c1Cl,inactive,,

# The next lines start with results.
outcome,% ACh max response,Structure (SMILES),other results
inactive,,Cc1nc2sc(C(=O)NCc3cccnc3)c(N)c2c(C)c1Cl,
inactive,,Cc1nc2sc(C(=O)NCc3ccccc3)c(N)c2c(C)c1Cl,
,inactive,Cc1nc2sc(C(=O)NCc3nccs3)c(N)c2c(C)c1Cl,

# — PubChem BioAssay AID623924 (Vanderbilt Specialized Chemistry Center, 2012)
